Measured values: patent WO2009110655A1, “Novel beta substituted morita-baylis-hillman derivatives” (FOOD SCIENCE Co Ltd, priority 2008, dated 2009)

Legend:
[1] = tested on: human esophageal cancer cell line HEC4; test: MTT assay, anticancer effect (cytotoxicity) of β-substituted MBH derivatives; format: cell-based
Human HeLa cell lines = conditions: "It is reported"; cited from earlier work
[2] = 2 mg compound in 80 μl DMSO, 1 μl per well, 24 h at 37 °C, undiluted (FIGs. 1 and 2)
[3] = diluted 20-fold, 24 h at 37 °C (FIG. 3)

Row | Compound | oncolytic activity [1, 2] | viabilities of the cancer cells [1, 3] | further results
1 | CCCCCCCCCCCCC/C=C(/C(=O)OC)C(O[Si](CC)(CC)CC)C(C)=O (stereo not drawn) [SE-2, (E)-methyl-2-(l-triethylsiloxy-2-oxopropyl)hexadeca-2-enoate] | almost no oncolytic activity |  | 
2 | CCCCCCCCCCCCC/C=C(/C(=O)OC)C(O)C(C)=O (stereo not drawn) [SE-3, secokotomolide A] |  | about 50% | DNA damage (Human HeLa cell lines): apotositic DNA damage; induction of apoptosis (Human HeLa cell lines): significant induction of apoptosis
3 | CCCCCCCCCCCCC/C=C(/C(=O)OC)C(O)c1ccccc1 (stereo not drawn) [SE-5, (E)-methyl-2-(hydroxy(phenyl)methyl)hexateca-2-enoate] |  | about 50% | activity (comparison of diluted samples) ([1]; diluted samples, 20-fold, compared with SE-3 (FIG. 3)): a little higher activity than SE-3
4 | C=C(C)C(O[Si](CC)(CC)CC)/C(=C\CCCCCCCCCCCCC)C(=O)OC (stereo not drawn) [SE-I, (E)-methyl-2-(l-triethylsiloxy-2-methylaryl)hexadeca-2-enoate] | almost no oncolytic activity |  | 
5 | CCCCCCCCCCCC/C=C(\C(=O)OC)C(O)c1ccccc1 (stereo not drawn) [SE-Il, (Z)-methyl-2-(hydroxy(phenyl)methyl)pentadeca-2-enoate] | very high oncolytic activities |  | viabilities of the cancer cells [1, 2]: less than 20%
